Results from patent EP1785722A1, “Microbial, viral and mammalian susceptibility to agents that affect cell growth and metabolism, and compatibility of compounds” (Stratos Bio Ltd., priority 2005, dated 2007).
“Also recorded” adds a separate entry of the source.

Assays:
[1] = Animal case study: antibiotic treatment of a cat; assay type: in vivo; conditions: domestic cat with a scratch to the eye; 30 days of treatment
Method: A domestic cat was given a mixture of antibiotics as eye drops in response to a scratch to the eye. […] Previously the cat had never been given milk (as many animals are allergic to cow's milk). The cat was now given full cream milk as part of a regimen to promote weight gain (the cat also continued to eat its usual amount of daily cat food throughout the period of weight loss). Initially weight was gained but within 24 hours weight loss resumed (presumably because the pathogenic bacteria/viruses had found a way of utilising lactose). An autopsy indicated bone-cancer as cause of death. The body wasting caused by the weight loss was very similar to that observed in early AIDS cases. However the cat had been regularly vaccinated against HTLV 1 through its 16 year life (and had never been ill in that period).

[2] = test system: Bordetella Bronchiseptica; assay: Flow microcalorimetry (p-t curves) of growing Bordetella bronchiseptica; assay type: cell-based
Source text: (§1) • a) For B. pumilus a simple glucose/salts medium was employed with a glucose concentration of 0.1 % w/v. • b) For Bord. bronch. The above salts medium was used with the addition of nicotinic acid, methionine and glutamic acid. Glutamic acid was used at a concentration of 0.2% w/v. • c) For M. flavus a semidefined medium was employed, using the same salts as a B. pumilus but also Na-citrate, biotin and protease peptone. In the calorimeter a concentration of 0.4% protease peptone was used. All medium constituents (except protease) were analytical reagents. The calorimetric medium was therefore a final concentration of 100ml of either solution a, b or c freshly autoclaved for 15 mins exactly at 121°C, 151b/sq inch. Glucose was added to the appropriate solution after autoclaving.
(§2) To the vertical face of the vessel close to its base, equidistantly spaced around the circumference, ports were fitted for an oxygen electrode and for sampling/inoculation. The fermenter was closed with a flat flanged glass lid which had five ports accommodating respectively, gas inlet tube, gas exhaust (via air condenser), inlet and outlet flow-lines to and from the calorimeter. The fermenter and lid was sealed with a p.t.f.e. gasket and clamped with a metal clip. The fermenter was placed on a magnetic stirring unit in a water jacket which allowed circulation of the thermostatically controlled water at 30°C or 37°C. The fermenter which contained a Teflon coated magnetic stirring bar, was sterilised by autoclaving.
(§3) For a typical calorimetric incubation the medium was passed through the calorimetric vessel at the same flow rate and temperature as those used in the experiment to establish a steady baseline deflection. The following operations then took place to a strict timetable. The liquid nitrogen stored ampoule was thawed at 38°C for 3 min and then stirred for 20 sec on a whirlimixer. The bacterial suspension (0.5-1.5ml) volumes was inoculated into the medium (100ml) two minutes after completion of thawing. A Gilson automatic pipette was used for inoculation. The calorimeter inlet flow-line was placed in the incubation medium 30 seconds after inoculation. The flowing incubation medium reached the calorimetric vessel two min after inlet flow-line insertion. At this time the recording of the p-t curves was started. Eight min after inoculation the outflow from the calorimeter was returned to the fermenter (after the "baseline" medium had run to waste but before the inoculated medium ran to waste) thus making a closed system. Aeration was started as soon as the inlet tube was inserted in the fermenter. Microbiological purity of the culture was checked by plating out a sample of the culture at the end of each incubation on nutrient agar (lab M).
(§4) The output of calorimetric experiments is a plot of power (energy evolution per unit of time) as a function of time. The unit of power (p) is the Watt (W) and the unit of time is the hour (h). In some experiments seconds (s) were used as time unit.
After successful freezing of Bord. bronch p-t curves for growth in different concentrations of glutamic acid from 0.1%-0.5% were obtained. It was concluded that a medium containing 0.2% glutamic acid would be sufficient for a good deflection in the microcalorimeter minimising the possibility of the bacteria clogging in the microcalorimetric cell or in the teflon tubes leading to and from the microcalorimetric cell. A pH of 7 was used in all the following experiments as this is the optimum pH for polymyxin - lipid binding.
It was of vital importance to maintain a constant oxygen tension; this was achieved by using saturation concentrations of oxygen. It was decided to use the height of the small peak as full scale deflection for the antibiotic assay as the increase in power was exponential up to this point and the peak occurred at a convenient time. This choice of assay point was empirical. The inoculum was 1.1 ± 0.06 x 10^8 cfu/ml for all the microclalorimetric incubations. […]

[3] = test system: Micrococcus flavus; assay: MIC / MBC against Micrococcus flavus; assay type: cell-based
[4] = test system: E. coli; assay: Electron microscopy of E. coli treated with ZNB; assay type: cell-based; conditions: response not lethal for the bacterium; listed as ZNB
[5] = test system: Micrococcus flavus; assay: Flow microcalorimetry (p-t curves) of growing Micrococcus flavus; assay type: cell-based
Source text: as §1, §2, §3, §4
This point occurred at an increase in deflection of 29.5% from the baseline value.

[6] = test system: respiring E.coli; assay: Microcalorimetry of respiring E. coli in glucose buffer; assay type: cell-based; conditions: for response on addition to respiring E.coli: highest concentration added 300µg/ml
Method: E.coli was suspended in 10% DMSO prior to freezing and the viable counts were for batch 1: pre-freeze: 4.0 ± 0.6_ x 10^10 cfu/ml and post -freeze 2.0 ± 0.44 x 10^10 cfu/ml and for batch 2: pre-freeze: 3.45 ± 0.58 x 10^10 cfu/ml and post-freeze 2.93 ± 0.43 x 10^10 cfu/ml. The freezing rate for both batches was 20°C/min the survival rate was 50% for batch 1 and 85% for batch 2. These differences may have been due to batch 1 being kept for 24h at 4°C before being frozen.
The respiration experiments were carried out in glucose buffer at different pH. The respiration curves obtained from batch 1 (inoculum 2 x 10^10 cfu/ml) and batch 2 Inoculum 3.2 x 10^10 cfu/ml) were essentially similar and a mean was used as a reference). The respiration experiments were carried out at pH 7 for polymyxin and Znbacitracin and at pH 8 for neomycin. No differences in p-t control curves could be observed at pH 7 or pH 8.
The p-t curves rose and reached a plateau as has been observed for respiration of yeasts and some 20 min later fell to a lower plateau value. Prior incubation of the cells in the buffered glucose for periods up to 20 min before presentation to the calorimeter could reduce or entirely remove this effect.

[7] = test system: B. pumilus; assay: MIC determination against B. pumilus; assay type: cell-based, Bacillus pumilus; conditions: as printed in table heads
Method: (§5) However when the concentration of organisms was 5.1 x 10^6 cfu/ml which was the inoculum used in the microcalorimetric incubations the MIC was increased to 2 µg/ml; the effect was also bacteriostatic.

[8] = test system: M. flavus; assay: Electron microscopy of M. flavus treated with Znbacitracin; assay type: cell-based, Micrococcus flavus; conditions: even at 0.05 µg/ml (0.25 x MIC)
Source text: No differences could be observed between fresh and frozen cells treated with antibiotic, which is as expected since no observable damage had occurred to the bacterial cells during freezing/thawing.

[9] = test system: Bordetella Bronchiseptica; assay: MIC / MBC against Bordetella bronchiseptica; assay type: cell-based; conditions: as printed in table heads
[10] = test system: E. coli; assay: MIC / MBC against E. coli; assay type: cell-based
[11] = test system: Bacillus pumilus; assay: Flow microcalorimetry (p-t curves) of growing Bacillus pumilus; assay type: cell-based; conditions: ZNB 20 ug/ml; pH 8.00
Source text: as §1, §2, §3, §4, §5

[12] = 0.02 ug/ml added at 50 % of p-t curve
[13] = 0.6-1 ug/ml added at 0 % of p-t curve

**Q.** Which “effect on the eye” value [1] does the source give for `CN[C@H](CC(C)C)C(=O)N[C@H]1C(=O)N[C@@H](CC(N)=O)C(=O)N[C@H]2C(=O)N[C@H]3C(=O)N[C@H](C(=O)N[C@H](C(=O)O)c4cc(O)cc(O)c4-c4cc3ccc4O)[C@H](O)c3ccc(c(Cl)c3)Oc3cc2cc(c3O[C@@H]2O[C@H](CO)[C@@H](O)[C@H](O)[C@H]2O[C@H]2C[C@](C)(N)[C@H](O)[C@H](C)O2)Oc2ccc(cc2Cl)[C@H]1O` [vancomycin] here?
**A.** without any effect to the eye

**Q.** Which results are given for Znbacitracin?
**A.** effect on growing cultures ([2]; ZNB added to growing cultures (Fig. 17)): a small plateau was reached before growth reoccurred; Observed effect on p-t curves ([2]; single antibiotic at its MIC (0.25ug/ml Neo; 100ug/ml ZNB), added at 50 % of p-t curve): Slightly delayed peak; MBC ([3]; as printed in table head): Ug/ml MIC & MBC 0.2 ug/ml; MIC ([3]; listed as ZNB): 0.2 µg/mL; effect on bacterial membrane (electron micrographs) [4]: protrusions have been observed on the bacterial membrane; also recorded: did actually cause protrusions to occur on the bacterial membrane; concentrations at which no further response could be recorded [5]: higher than 4 µg/ml; concentrations at which no variation in p-t curves could be observed [5]: lower than 0.02 µg/ml; Comments [5, 12]: No inhibition observed; Observed effect on p-t curves [5, 12]: Standard growth curve; appearance of p-t curves ([5]; 0.02-0.8 µg/ml (0.1 x MIC-4 x MIC)): a power plateau immediately after addition of the antibiotic for varying periods of time and then an increase in power followed by a further small peak; Peak of growth curve later than standard curve ([5]; 0.1-1 ug/ml added at 50 % of p-t curve): Peak of growth curve occurs 60 min later than standard curve; Observed effect on p-t curves ([5]; 0.1-1 ug/ml added at 50 % of p-t curve, CV 1.8%): Linear log dose response curve 2 hours after addition of antibiotic CV 1.8%; Comments ([5]; 0.2-0.3 ug/ml added at 0 % of p-t curve): Initial growth promoting effect - delayed peak after 9 hours; Observed effect on p-t curves ([5]; 0.2-0.3 ug/ml added at 0 % of p-t curve, CV 2.3%, n=10): 1.4 standard curve CV =2.3% , n=10; Comments [5, 13]: Bacteriocidal effect confirmed all bacteria are dead; Observed effect on p-t curves [5, 13]: Total inhibition of growth; Observed effect on p-t curves ([5]; 1-4 ug/ml added at 50 % of p-t curve, cv 1.4% n=10): Linear log dose response curve 20 min after addition of antibiotic cv = 1.4% n= 10; appearance of p-t curves ([5]; 5 x MIC - 20 x MIC): held at a plateau for a varying amount of time and then decreased towards a baseline value; largest dose that could be distinguished ([5]; added at 50 % of p-t curve): 4 ug/ml largest dose that could be distinguished any higher dose s gave identical dose response curves; concentration with initial growth promoting effect ([5]; added at inoculum): 0.2 to 0.3 µg/mL; Comments ([6]; ZNB 300 ug/ml - 1000 ug/ml): Resistance demonstrated; Observed effect on p-t curves ([6]; ZNB 300 ug/ml - 1000 ug/ml, pH 7): No response; response on addition to respiring E.coli [6]: No response could be observed; response on addition to respiring E.coli ([6]; listed as ZNB): no effect on power output; MIC [7]: 20 µg/mL; effect on the cell surface (electron micrographs) [8]: Protrusions on the cell wall can be observed; MIC [9]: 100 µg/mL; MBC ([10]; as printed in table head): > 1000 µg/mL; MIC ([10]; as printed in table head): > 1000 µg/mL; MIC ([10]; text): > 1000 µg/mL; Observed effect on p-t curves [11]: No effect on p-t curve
